Data reported in patent publication US6613572B2, “Agent for expression of long-term potentiation of synaptic transmission comprising compound having brain somatostatin activation property” (priority 1999, dated 2003).

Columns and labels:
[1] = test system: voltage-dependent calcium channel of hippocampus pyramidal cells; assay: Voltage-dependent Ca2+ current of rat hippocampus pyramidal cell, whole cell patch-clamp; format: cell-based
Method: Hippocampal slices were prepared from the brains of 5- to 14-day-old male Wistar rats and the nerve cells were quickly isolated by trypsin enzyme treatment method. According to the whole cell patch-clamp method, the membrane potential of hippocampus pyramidal cell was fixed at −80 mV and the membrane potential-dependent […] current (Ica) was measured in Cs^+ electrode inner solution and Ba^2+ bath outer solution. The resistance of the electrode was 2-4 MΩ. Compound 1 was added to bath outer solution concentrations of 0.01 μM, 0.1 μM and 1.0 μM, respectively, and perfused with the bath outer solution. Nothing was added to the bath outer solution for the control group. The maximal value of the current (peak amplitude) was measured, and calculated as the variation (%) relative to the value before addition of compound 1. Each value (%) was expressed by mean±S.E.M. The number of measurements was 7. The property of compound 1 was evaluated by Dunnett's multiple comparison test relative to the control group.

rat hippocampal slice = assay: Somatostatin release from rat hippocampal slice upon high K+ (50 mM) stimulation, radioimmunoassay; format: cell-based; details: property significant at 10^-7 M and 10^-6 M vs control (Dunnett)
Method: Rat hippocampal slices (thickness 350 μm, round slice) were prepared by a standard method. Twenty rat hippocampal slices were placed in a perfusion chamber, incubated at 37° C. and perfused by a batch method while exchanging the incubation buffer every 10 minutes. The incubation buffer used had the composition as noted below. A mixed gas of oxygen (95%) and carbon dioxide (5%) was used to saturate the buffer. Composition of incubation buffer: NaCl, 124 mM; KCl, 5 mM; KH2PO4, 1.24 mM; MgSO4, 1.3 mM; CaCl2, 2.4 mM; NaHCO3, 26 mM; D-glucose, 10 mM
Perfusion for 150 minutes gave fractions 1-15. To fraction 9 was applied a high K^+ (50 mM) stimulation. Compound 1 was added to fractions 7-15 to the concentration of 10^−9 M, 10^−7 M, […], 10^−6 M, respectively. […] The respective fractions thus obtained were concentrated by lyophilization and somatostatin in the perfusate was quantified by radioimmunoassay (RIA). After the completion of the experiment, somatostatin remaining in the slices was extracted by a conventional method and quantified by radioimmunoassay. The somatostatin amount released by high K^+ (50 mM) stimulation was calculated and the amount of somatostatin released due to the property of compound 1 was measured.
Somatostatin release (%) by compound 1 at each concentration was calculated as in the following. […] The number of the test samples measured was 10 or 11. […]

[2] = test system: mossy fiber-CA3 field pyramidal cell of hippocampal slice; assay: LTP in mossy fiber-CA3 field pyramidal cell of hippocampal slice, population spikes after tetanic stimulation; format: cell-based, guinea pig
Method: Slices (thickness 500 μm, round slice) were prepared from hippocampus removed from male Hartley guinea pigs (body weight 220-350 g) and population spikes were extracellularly recorded. The hippocampal slices were perfused with an artificial cerebrospinal fluid (33-34° C., composition: NaCl, 124 mM; KCl, 5 mM; KH2PO4, 1.24 mM; MgSO4, 1.3 mM; CaCl2, 2.4 mM; NaHCO3, 26 mM; D-glucose, 10 mM) saturated with a mixed gas of oxygen (95%) and carbon dioxide (5%) at flow rate of 1.8-2.0 ml/min. Mossy fiber was stimulated with a stimulating electrode at a voltage of not more than 10 V, frequency of 0.2 Hz and the population spikes in the CA3 field pyramidal cell layer was recorded every 5 minutes. When the population spikes to be recorded were stabilized, tetanic stimulation for induction of LTP was applied. The tetanic stimulation includes stimulation at the same voltage of not more than 10 V, as when the stimulation was applied at a frequency of 0.2 Hz, but upon increase of the frequency to 33 Hz for 5 seconds. The height of from negative peak to the next positive peak of the obtained population spikes after stimulation was measured and taken as an amplitude (population spike amplitude; PSA). The degree of LTP was expressed by a potential variation (%) by the increase in the amplitude of population spikes after tetanic stimulation relative to the average of 4 measurements of the amplitudes of population spikes obtained before tetanic stimulation. Each value was expressed by mean±S.E.M (the number of slices tested was 3 to 8). As the index of the property of a drug, the area (%·min) between the graph from 12 minutes to 62 minutes after tetanic stimulation and the line where the potential variation is 0%, in the time lapse graph of potential variation, was calculated and taken as the magnitude of LTP. Compound 1 was dissolved in and diluted with distilled water and added to perfusate to the concentration of 10^−9 M, 10^−8 M, 10^−7 M and 10^−6 M, respectively, and applied to a hippocmpal slice for […] from 2 minutes before the tetanic stimulation to 4 minutes thereafter. Nothing was added to perfusate for control group.
The property of compound 1 relative to the magnitude of LTP was tested by one-way analysis of variance and Dunnett's multiple comparison test.

[3] = test system: voltage-dependent calcium channel of hippocampus pyramidal cell; assay: Effect of somatostatin and compound 1 on voltage-dependent Ca2+ current of rat hippocampus pyramidal cell; format: cell-based; details: compound 1 10^-7 M plus somatostatin 10^-7 M
Method: Hippocampal slices were prepared from the brains of 5- to 14-day-old male Wistar rats and the nerve cells were quickly isolated by trypsin enzyme treatment method. According to the whole cell patch-clamp method, the membrane potential of hippocampus pyramidal cell was fixed at −80 mV and the membrane potential-dependent […] current (Ica) was measured in Cs^+ electrode inner solution and Ba^2+ bath outer solution. The resistance of the electrode was 2-4 MΩ. Compound 1 was added to bath outer solution concentrations of 0.01 μM, 0.1 μM and 1.0 μM, respectively, and perfused with the bath outer solution. Nothing was added to the bath outer solution for the control group. The maximal value of the current (peak amplitude) was measured, and calculated as the variation (%) relative to the value before addition of compound 1. Each value (%) was expressed by mean±S.E.M. The number of measurements was 7. The property of compound 1 was evaluated by Dunnett's multiple comparison test relative to the control group. […]

CC(=O)N1CCN(NC(=O)c2ccc(F)cc2)CC1.O [Compound 1, N-(4-acetyl-1-piperazinyl)-p-fluorobenzamide monohydrate]
membrane potential-dependent calcium current (variation of peak amplitude) ([1]; 0.01 μM, 0.1 μM and 1.0 μM, compared to control group, holding -80 mV): significantly promoted | shape of dose dependency of the calcium current promotion ([1]; 0.01 to 1.0 μM): bell-shape dose dependency | somatostatin release (%) (rat hippocampal slice): promoted somatostatin release | potential variation after tetanic stimulation (magnitude of LTP, 12 to 62 min) ([2]; at 10^-7 M and 10^-6 M): increased potential variation | response of base before tetanic stimulation (potential variation) ([2]; before tetanic stimulation, compound applied to slice in perfusate): no significant influence | LTP enhancing property in hippocampal slice from guinea pig treated with cysteamine ([2]; cysteamine 200 mg/kg, compound 1 at 10^-7 M): did not show LTP enhancing property | concentration at which the action on LTP was maximal ([2]; tested at 10^-9 to 10^-6 M): 10^−7 M | suppressive property of somatostatin on calcium current in the presence of compound 1 [3]: completely released
